# Assay: Permeation of adenosine into stratum corneum of forearm skin (tape peel, LC-MS quantification)
# Format: in vivo, human
# Conditions: forearm of a test subject, Formulation 1 that contains ultrafine bubbles (aerosol spray, actuator D391, nitrogen 0.9 MPa) applied first, then Formulation 2 (0.2% adenosine) applied for 10 minutes, 1 cm by 1 cm stratum corneum
# Source text: In order to provide Formulation 1 that contains ultrafine bubbles onto the skin, the aerosol container 10 was filled with Formulation 1, and the interior pressure was set to 0.9 MPa with nitrogen gas. The actuator “D391” having a flow rate adjusting mechanism produced by K. K. Mitani Valves was applied as the spray actuator 11.
# That is, a liquid which was sprayed from the aerosol container 10 and Formulation 1 as an undiluted liquid were applied to two different locations on a forearm of a test subject. Thereafter, Formulation 2 that contains adenosine was applied onto each of the two locations for 10 minutes. Next, 1 cm by 1 cm squares of stratum corneum were peeled from the locations onto which the formulations were applied, stratum corneum components were extracted, and the amounts of adenosine were quantitatively analyzed by the LC-MS method (Liquid Chromatography Mass Spectrometry method).
smiles,measurement,value
Nc1ncnc2c1ncn2[C@@H]1O[C@H](CO)[C@@H](O)[C@H]1O [adenosine],"amount of adenosine within the stratum corneum, relative to the case that Formulation 1 that did not contain ultrafine bubbles was applied",1.6 times

# From patent US20220387469A1, “METHOD OF UTILIZING ULTRAFINE BUBBLES” (Shiseido Company, Ltd., priority 2019, published 2022)
